Measurements reported in patent US7285555B2, “6-aryl-7-halo-imidazo[1,2-a]pyrimidines as anticancer agents” (Wyeth Holdings Corporation, priority 2003, dated 2007).

Key:
[1] = system: highly purified tubulin (tubulin heterodimer); test: Competitive binding test procedure, [3H]vinblastine; parameters: species or system bovine; details: competitor 100 μM, [3H]vinblastine 100 nM
Method: (§1) Medium is RPMI-1640 with L-glutamine, supplemented with 10% heat-inactivated fetal calf serum, 100 units/mL penicillin, and 100 μg/mL streptomycin (Gibco, Grand Island, N.Y.). Microtubule-associated protein (MAP)-rich tubulin, containing about 70% tubulin and 30% MAPs (#ML113), and highly purified tubulin (>99% pure, #TL238), both from bovine brain, are obtained from Cytoskeleton, Inc., Denver, Colo. PEM buffer (80 mM piperazine-N,N′-bis[2-ethanesulfonic acid], pH 6.9, 1 mM ethylene glycol-bis(β-aminoethyl ether)-N,N,N′,N′-tetraacetic acid, 1 mM magnesium chloride) and guanosine 5′-triphosphate (GTP) are also obtained from Cytoskeleton. [^3H]paclitaxel, specific activity 14.7 Ci/mmol, is purchased from Moravek Biochemicals (Brea, Calif.). [^3H]vinblastine, specific activity 9.60 Ci/mmol and MicroSpin G-50 columns are obtained from Amersham Biosciences (Piscataway, N.J.). […] Other reagents are obtained from Sigma (St. Louis, Mo.).
(§2) The binding of examples of this invention to highly purified tubulin is studied by competitive inhibition methods. […] To study possible competition at the taxane site, on the other hand, polymerized tubulin (microtubules) is used because paclitaxel binds preferentially to microtubules.
(§3) Highly purified tubulin is dissolved in PEM buffer without GTP and used at a final concentration of 1.0 to 1.3 mg/ml (10 to 13 μM). […] These solutions are incubated at 240 for 1 hr and then applied to MicroSpin G-50 columns which are centrifuged for 2 min at 3000 rpm in an Eppendorf 5415C microfuge. An aliquot of each column effluent (containing tubulin and bound radioligand) is mixed with scintillation fluid and counted in a liquid scintillation spectrometer. […] Quadruplicates are averaged, and the ability of the competitor to inhibit the binding of the radioligand is expressed as a percentage of control binding in the absence of any competitor.

pure tubulin = test: Tubulin polymerization test procedure with pure tubulin; assay type: biochemical, bovine; details: for polymerization of pure tubulin without GTP (in words): pure tubulin without added GTP
Method: as §1
The procedure with pure tubulin is similar except for the following changes. […] The supernatant after centrifugation is dispensed to a ½-area 96-well plate already containing compounds. Each compound is tested in duplicate at a final concentration of 24.3 μM. The plate reader μs thermostated at 35°.

MAP-rich tubulin = test: Tubulin polymerization test procedure with MAP-rich tubulin; assay type: biochemical, bovine; details: MAP-rich tubulin with 1 mM GTP, compound 0.3 μM, at 20 min
Method: as §1
MAP-rich tubulin is dissolved in ice-cold PEM buffer containing 1 mM GTP (GPEM buffer) at a concentration of 1.3 mg/mL. The solution is centrifuged at top speed in an Eppendorf model 5415C microcentrifuge (Brinkmann Instruments, Westbury, N.Y.) for 10 min at 40 immediately before use. The tubulin solution is added to wells of a ½-area 96-well plate (Costar No. 3696, Corning, Inc., Corning, N.Y.) already containing the compounds of interest. Each compound is tested in duplicate at a final concentration of 0.3 μM in a volume of 110 μL per well. The final DMSO concentration in all wells is 0.3%. Control reactions, which receive compound solvent only, are done in quadruplicate. The plate is put in a SpectraMax Plus plate reader (Molecular Devices Corp. Sunnyvale, Calif.) thermostated at 240 and the absorbance of each well at 340 nm, a measure of the appearance of turbidity due to tubulin polymer formation, is determined every minute for 60 minutes. The absorbance at time 0 for each well is subtracted from each of the subsequent absorbance readings for that well, and then the duplicates are averaged.
In this assay, control reactions with MAP-rich tubulin show an S-shaped absorbance profile characterized by three phases: first, a lag phase during which no change in absorbance occurs; second, a polymerization phase in which absorbance increases; and third, a plateau phase in which absorbance has reached a maximum and little or no further change occurs. Polymerization enhancers such as paclitaxel and docetaxel shorten or eliminate the lag phase, increase the rate of the polymerization phase, and often increase the height of the plateau. […] This has been expressed quantitatively in Table 6 by dividing the mean A340 of each sample at 20 min by the mean A340 of the control at 20 min to give a fold enhancement over control. […]

[2] = system: polymerized tubulin (microtubules); test: Competitive binding test procedure, [3H]paclitaxel; parameters: species or system bovine; details: [3H]paclitaxel 2.1 μM
Method: as §1, §2
For competition with [^3H]paclitaxel, highly purified tubulin is dissolved in PEM buffer containing 0.75 M glutamate and 25 μM dideoxy-GTP; final protein concentration is 0.25 to 0.35 mg/mL (2.5 to 3.5 μM). These conditions foster the rapid formation of short, stable microtubule polymers (Hamel, E., del Campo, A. A., and Lin, C. M. Stability of tubulin polymers formed with dideoxyguanosine nucleotides in the presence and absence of microtubule-associated proteins. J. Biol. Chem., 259: 2501-2508, 1984). […] The reactions are then centrifuged at top speed in an Eppendorf 5415C microfuge for 20 min at room temperature in order to pellet the microtubule protein. Triplicate aliquots of each supernatant are mixed with scintillation fluid and counted in a liquid scintillation spectrometer. From the amount of radioactivity in the supernatants and the measured total starting radioactivity, the amount of [^3H]paclitaxel bound to pelleted microtubule protein is calculated. The ability of each competitor to inhibit radioligand binding to pelleted protein is expressed as a percent of controls without any competitor.

[3] = system: highly purified tubulin (tubulin heterodimer); test: Competitive binding test procedure, [3H]colchicine; parameters: species or system bovine; details: competitor 100 μM, [3H]colchicine 50 nM
Method: as §1, §2, §3

[3H]Vinblastine binding, Mean, percent of binding to control without competitor [1]	[3H]Paclitaxel binding, Mean, percent of binding to control without competitor ([2]; competitor 20 μM)	[3H]Paclitaxel binding, Mean, percent of binding to control without competitor ([2]; competitor 20 μM, listed as example 6)	[3H]Colchicine binding, Mean, percent of binding to control without competitor [3]	[3H]Colchicine binding, Mean, percent of binding to control without competitor ([3]; listed as example 6)	[3H]Paclitaxel binding, Mean, percent of binding to control without competitor ([2]; competitor unlabeled paclitaxel 5 μM)	SMILES	polymerization of pure tubulin without GTP (in words) (pure tubulin)	A340 at 0 min (pure tubulin; pure tubulin, no added GTP, compound 24.3 μM, 0 min)	A340 at 5 min (pure tubulin; pure tubulin, no added GTP, compound 24.3 μM, 5 min)	A340 at 10 min (pure tubulin; pure tubulin, no added GTP, compound 24.3 μM, 10 min)	A340 at 15 min (pure tubulin; pure tubulin, no added GTP, compound 24.3 μM, 15 min)	A340 at 20 min (pure tubulin; pure tubulin, no added GTP, compound 24.3 μM, 20 min)	A340 Compound / A340 Control (fold enhancement over control) (MAP-rich tubulin)
17%	92%	does not inhibit	84%	does not inhibit	–	CN(C)CCCOc1cc(F)c(-c2c(Cl)nc3nccn3c2C2CCCCCC2)c(F)c1 [Example 6, 3-[4-(7-Chloro-5-cycloheptylimidazo[1,2-a]pyrimidin-6-yl)-3,5-difluorophenoxy]-N,N-dimethylpropan-1-amine]	induces polymerization	0	0.15	0.19	0.19	0.19	1.7
92%	–	–	93%	–	35%	CC(=O)O[C@H]1C(=O)[C@@]2(C)[C@H]([C@H](OC(=O)c3ccccc3)[C@]3(O)C[C@H](OC(=O)[C@H](O)[C@@H](NC(=O)c4ccccc4)c4ccccc4)C(C)=C1C3(C)C)[C@]1(OC(C)=O)CO[C@@H]1C[C@@H]2O [Paclitaxel, reference compound]	able to induce polymerization	–	–	–	–	–	1.8
